Experimental data: ChEMBL document CHEMBL5465560, “Selectivity Literature for EUbOPEN Chemogenomic Library” (2024)
One block for each compound: values may come before it.

Key:
[1] = biological target: Glycogen synthase kinase-3 alpha (Homo sapiens, UniProt P49840); assay: Selectivity interaction (Competition-binding assay (DiscoverX)) EUB0001632a GSK3A
[2] = biological target: Mitogen-activated protein kinase kinase kinase 9 (Homo sapiens) (UniProt P80192); assay: Selectivity interaction (KinomeScan (DiscoverX)) EUB0000655a MAP3K9; conditions: at 10 µM
Sequence of Mitogen-activated protein kinase kinase kinase 9 (Homo sapiens) (P80192 whole entry, looked up): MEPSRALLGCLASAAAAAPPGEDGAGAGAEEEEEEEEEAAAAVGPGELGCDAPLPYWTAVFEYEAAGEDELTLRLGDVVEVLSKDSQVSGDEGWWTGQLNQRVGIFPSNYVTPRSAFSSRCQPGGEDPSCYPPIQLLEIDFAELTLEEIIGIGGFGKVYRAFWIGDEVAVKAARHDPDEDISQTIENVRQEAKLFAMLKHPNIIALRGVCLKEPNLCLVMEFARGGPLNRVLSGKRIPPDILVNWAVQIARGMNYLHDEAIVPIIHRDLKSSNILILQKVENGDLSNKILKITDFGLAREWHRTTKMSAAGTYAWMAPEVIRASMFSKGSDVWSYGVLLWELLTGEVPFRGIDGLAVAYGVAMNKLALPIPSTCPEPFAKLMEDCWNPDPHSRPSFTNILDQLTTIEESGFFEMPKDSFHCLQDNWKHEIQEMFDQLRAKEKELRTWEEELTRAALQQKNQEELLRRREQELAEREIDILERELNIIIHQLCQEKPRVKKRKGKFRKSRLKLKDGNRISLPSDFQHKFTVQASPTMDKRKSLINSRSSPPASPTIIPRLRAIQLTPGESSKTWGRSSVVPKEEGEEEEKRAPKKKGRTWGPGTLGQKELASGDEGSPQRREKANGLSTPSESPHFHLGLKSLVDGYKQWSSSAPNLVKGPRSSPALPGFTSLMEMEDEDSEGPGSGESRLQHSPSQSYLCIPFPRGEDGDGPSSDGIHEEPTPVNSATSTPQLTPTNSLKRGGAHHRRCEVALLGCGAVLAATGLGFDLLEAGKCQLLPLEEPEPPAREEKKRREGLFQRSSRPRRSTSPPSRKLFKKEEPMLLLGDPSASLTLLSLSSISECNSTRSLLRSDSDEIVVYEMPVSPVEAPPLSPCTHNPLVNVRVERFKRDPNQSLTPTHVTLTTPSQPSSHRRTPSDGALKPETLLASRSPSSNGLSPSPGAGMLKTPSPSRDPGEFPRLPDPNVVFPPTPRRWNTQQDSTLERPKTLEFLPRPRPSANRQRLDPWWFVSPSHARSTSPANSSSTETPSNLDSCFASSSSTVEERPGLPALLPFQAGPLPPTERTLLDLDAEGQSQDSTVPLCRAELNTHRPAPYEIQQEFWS

[3] = biological target: T1, Ephrin type-B receptor 6 (Homo sapiens) (UniProt O15197); assay: Selectivity interaction (KinomeScan (DiscoverX)) EUB0000655a EPHB6; conditions: at 10 µM
T1 sequence (whole entry): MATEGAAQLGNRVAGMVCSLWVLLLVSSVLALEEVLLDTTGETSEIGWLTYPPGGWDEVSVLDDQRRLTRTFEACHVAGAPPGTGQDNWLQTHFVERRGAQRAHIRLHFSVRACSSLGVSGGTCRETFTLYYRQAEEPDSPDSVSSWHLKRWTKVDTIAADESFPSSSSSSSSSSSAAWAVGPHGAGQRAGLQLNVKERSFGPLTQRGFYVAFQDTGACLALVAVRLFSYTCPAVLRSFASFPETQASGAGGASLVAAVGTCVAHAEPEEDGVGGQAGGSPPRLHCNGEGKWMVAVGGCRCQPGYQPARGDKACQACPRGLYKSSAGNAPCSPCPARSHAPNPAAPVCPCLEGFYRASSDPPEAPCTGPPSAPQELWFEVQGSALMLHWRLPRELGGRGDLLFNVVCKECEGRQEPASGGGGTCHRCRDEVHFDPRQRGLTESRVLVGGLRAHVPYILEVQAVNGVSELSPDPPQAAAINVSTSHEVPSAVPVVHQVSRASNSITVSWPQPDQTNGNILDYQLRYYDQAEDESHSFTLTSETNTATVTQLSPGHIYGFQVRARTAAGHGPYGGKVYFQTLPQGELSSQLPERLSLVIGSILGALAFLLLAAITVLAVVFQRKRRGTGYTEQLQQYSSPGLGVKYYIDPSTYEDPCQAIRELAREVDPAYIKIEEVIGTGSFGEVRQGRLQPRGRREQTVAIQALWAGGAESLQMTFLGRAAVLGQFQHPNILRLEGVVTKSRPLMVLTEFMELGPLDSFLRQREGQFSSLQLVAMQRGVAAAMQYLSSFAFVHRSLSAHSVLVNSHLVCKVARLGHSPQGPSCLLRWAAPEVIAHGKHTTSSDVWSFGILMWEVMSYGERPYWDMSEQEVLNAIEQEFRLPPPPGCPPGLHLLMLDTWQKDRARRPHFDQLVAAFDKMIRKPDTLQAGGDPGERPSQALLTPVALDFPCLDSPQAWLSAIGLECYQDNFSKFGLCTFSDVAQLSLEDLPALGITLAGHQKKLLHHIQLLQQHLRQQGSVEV

[4] = biological target: T2, Tyrosine-protein kinase receptor TYRO3 (Homo sapiens) (UniProt Q06418); assay: Selectivity interaction (KinomeScan (DiscoverX)) EUB0000045b TYRO3
T2 sequence (whole entry): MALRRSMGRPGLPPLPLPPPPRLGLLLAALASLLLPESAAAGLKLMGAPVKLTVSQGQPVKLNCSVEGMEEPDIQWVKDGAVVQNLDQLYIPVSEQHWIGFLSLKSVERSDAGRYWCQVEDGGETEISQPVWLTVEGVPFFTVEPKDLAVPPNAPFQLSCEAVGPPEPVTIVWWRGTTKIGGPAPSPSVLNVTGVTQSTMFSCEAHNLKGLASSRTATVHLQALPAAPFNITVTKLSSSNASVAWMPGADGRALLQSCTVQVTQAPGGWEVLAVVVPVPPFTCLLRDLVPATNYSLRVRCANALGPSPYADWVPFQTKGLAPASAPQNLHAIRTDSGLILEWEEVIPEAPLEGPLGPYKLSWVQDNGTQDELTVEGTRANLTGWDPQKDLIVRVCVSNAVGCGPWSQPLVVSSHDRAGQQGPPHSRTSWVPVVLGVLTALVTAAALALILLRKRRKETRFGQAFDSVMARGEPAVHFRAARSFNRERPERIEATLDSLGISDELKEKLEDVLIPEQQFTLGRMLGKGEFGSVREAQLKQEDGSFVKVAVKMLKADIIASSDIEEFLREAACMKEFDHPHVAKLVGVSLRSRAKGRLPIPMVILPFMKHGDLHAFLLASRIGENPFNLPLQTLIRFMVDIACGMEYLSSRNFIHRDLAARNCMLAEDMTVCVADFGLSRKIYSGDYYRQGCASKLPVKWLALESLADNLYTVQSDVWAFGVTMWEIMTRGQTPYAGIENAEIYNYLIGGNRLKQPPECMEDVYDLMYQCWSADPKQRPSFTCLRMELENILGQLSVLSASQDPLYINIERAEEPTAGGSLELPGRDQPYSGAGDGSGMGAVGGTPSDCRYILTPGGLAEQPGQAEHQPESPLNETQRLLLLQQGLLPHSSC

[5] = biological target: T3, Serine/threonine-protein kinase Sgk2 (Homo sapiens) (UniProt Q9HBY8); assay: Selectivity interaction (KinomeScan (DiscoverX)) EUB0000229b SGK2; conditions: at 10 µM
T3 sequence (whole entry): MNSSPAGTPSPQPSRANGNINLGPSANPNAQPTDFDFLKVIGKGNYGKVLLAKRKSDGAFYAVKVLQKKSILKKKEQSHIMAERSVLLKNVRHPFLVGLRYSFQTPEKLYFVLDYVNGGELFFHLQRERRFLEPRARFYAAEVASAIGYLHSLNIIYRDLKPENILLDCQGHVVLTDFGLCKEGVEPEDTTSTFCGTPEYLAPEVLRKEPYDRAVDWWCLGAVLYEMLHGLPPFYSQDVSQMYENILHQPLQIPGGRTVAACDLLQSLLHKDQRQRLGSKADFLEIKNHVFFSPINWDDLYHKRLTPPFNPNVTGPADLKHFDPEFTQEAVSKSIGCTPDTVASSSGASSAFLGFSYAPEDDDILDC

[6] = biological target: Cyclin-dependent kinase 16 (Homo sapiens) (UniProt Q00536); conditions: at 10 µM
Sequence of Cyclin-dependent kinase 16 (Homo sapiens) (Q00536 whole entry): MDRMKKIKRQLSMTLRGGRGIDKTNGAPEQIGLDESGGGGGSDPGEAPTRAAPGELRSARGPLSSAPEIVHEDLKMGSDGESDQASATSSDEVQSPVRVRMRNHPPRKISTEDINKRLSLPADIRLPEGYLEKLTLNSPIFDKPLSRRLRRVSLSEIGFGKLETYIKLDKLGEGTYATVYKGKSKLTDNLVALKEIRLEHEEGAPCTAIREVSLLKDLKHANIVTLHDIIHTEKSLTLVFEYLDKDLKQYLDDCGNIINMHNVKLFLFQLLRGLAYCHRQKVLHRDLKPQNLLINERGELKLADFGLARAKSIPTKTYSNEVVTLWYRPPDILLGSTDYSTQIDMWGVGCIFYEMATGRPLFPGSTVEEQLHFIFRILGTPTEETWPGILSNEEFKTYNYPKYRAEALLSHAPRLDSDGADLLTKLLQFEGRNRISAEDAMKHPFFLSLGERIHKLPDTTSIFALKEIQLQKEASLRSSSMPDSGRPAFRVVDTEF

Sequence of Glycogen synthase kinase-3 alpha (P49840 whole entry): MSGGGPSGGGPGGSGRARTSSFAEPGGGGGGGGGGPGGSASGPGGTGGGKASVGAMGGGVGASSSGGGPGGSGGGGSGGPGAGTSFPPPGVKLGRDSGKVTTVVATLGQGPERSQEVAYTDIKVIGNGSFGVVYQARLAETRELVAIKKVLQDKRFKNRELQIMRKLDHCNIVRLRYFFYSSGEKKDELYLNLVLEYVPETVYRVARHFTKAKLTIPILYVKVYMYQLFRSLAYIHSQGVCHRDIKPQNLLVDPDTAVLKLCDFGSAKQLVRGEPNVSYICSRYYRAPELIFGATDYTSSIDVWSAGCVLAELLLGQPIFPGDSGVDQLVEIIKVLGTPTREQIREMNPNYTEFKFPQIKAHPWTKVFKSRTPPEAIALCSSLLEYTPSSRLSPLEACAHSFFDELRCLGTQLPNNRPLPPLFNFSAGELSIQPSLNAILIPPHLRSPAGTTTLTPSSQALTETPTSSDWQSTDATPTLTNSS

Kd [1]: 1200 nM
SMILES: Cn1cc(-n2cnc3c(NCc4nc5cc(Cl)c(Cl)cc5[nH]4)nc(N4CCOCC4)nc32)cn1

SMILES: CN(C)CCOc1ccc(-c2nc(-c3ccncc3)c(-c3ccc4c(c3)CC/C4=N\O)[nH]2)cc1
% of control [2]: 100%
% of control [3]: 34%

SMILES: C=CC(=O)Nc1cc(-n2c(=O)ccc3cnc4ccc(-c5ccc(NS(C)(=O)=O)cc5)cc4c32)ccc1C
% of control ([4]; at 1 µM): 100%
% of control ([4]; at 10 µM): 100%

SMILES: COc1cc(N(C)c2ccnc3ccc(C(F)(F)F)cc23)cc(OC)c1OC
% binding [5]: 80%

SMILES: Cc1cc([C@@H](C)Nc2ccccc2C(=O)O)c2nc(N3CCOCC3)cc(=O)n2c1 [AZD-6482]
% of control [6]: 100%
